# In article PMC7062083, “Metabolite identification, tissue distribution, excretion and preclinical pharmacokinetic studies of ET-26-HCl, a new analogue of etomidate” (Royal Society Open Science, 2020):
# “And” between values parts separate entries of the source, which are not always exact repeats. Equal entries are not always repeated.
# Assays:
# [1] = Metabolic stability in human liver microsomes; assay type: in vitro ADME
# Protocol: (§1) Samples were analysed by LC–MS/MS as mentioned above.2.1 CLint, in vitro=0.693/t1/2/Cprotein, 2.2 CLint, in vivo=CLint, in vitro×Houston×LW/1000 2.3 andCLhep in vivo=HBF × fu ×CLint, in vivo/HBF + fu ×CLint, in vivo. Where Cprotein is microsomal protein concentration (mg ml^−1); Houston is Houston factor (45 mg of microsomal protein g^−1 liver); LW is liver weight (g) (per species); HBF is hepatic blood flow (ml min^−1) (per species); fu (two places) and later is unbound fraction (fu = 1 − %protein binding).
# [2] = Metabolic stability in rat liver microsomes; assay type: in vitro ADME
# Protocol: as §1
# [3] = Metabolic stability in monkey liver microsomes; assay type: in vitro ADME
# Protocol: as §1
# [4] = Plasma protein binding, equilibrium dialysis, mouse plasma; assay type: in vitro ADME
# Protocol: (§2) The PPB of ET-26-HCl in mouse, rat, beagle dog, monkey and human plasma was determined according to the equilibrium dialysis method. In brief, 1 ml of control plasma samples in dialysis bag was incubated in 10 ml of PBS containing ET-26-HCl at a final concentration of 2.21 × 10^2, 1.77 × 10^3 and 3.54 × 10^3 […] at 4°C with an equilibrium time of 9 h to reach the mass balance binding condition. A 100 µl aliquots of the PBS buffer and the plasma in the dialysis bag were transferred to 2 ml EP tubes and diluted to 995 µl with PBS and analysed on the LC–MS/MS system. The PPB (fppb) was calculated as follows: fppb=Din−Dout/Din×100% , where Din is the plasma drug concentration in the dialysis bag and Dout is the dialysate drug concentration.
# [5] = Plasma protein binding, equilibrium dialysis, beagle dog plasma; assay type: in vitro ADME
# Protocol: as §2
# [6] = Plasma protein binding, equilibrium dialysis, monkey plasma; assay type: in vitro ADME
# Protocol: as §2
# [7] = Tissue distribution in Sprague Dawley rats; assay type: in vivo
# Protocol: (§3) Concentrations of ET-26-HCl and ET-26-acid in biological samples were determined by liquid chromatography–tandem mass spectrometry (LC–MS/MS) after deproteinization with methanol. The bioanalytical method for simultaneous quantification of ET-26-HCl and ET-26-acid in the different matrix was fully validated according to FDA guidelines (electronic supplementary material, figure S1 and tables S1 and S2) in our previous study. Briefly, a 100 µl sample (plasma, tissue homogenate, bile, urine and faeces suspension) were spiked with 20 µl of IS solution and vortexed for 30 s. The mixture was then processed for protein precipitation with 300 µl methanol, followed by centrifugation at 12 000 r.p.m. for 5 min. Supernatant was collected and analysed by LC–MS/MS system.
# Sprague Dawley (SD) rats (200–240 g) were provided by the Animal Facility at Sichuan University (Chengdu, China). All rats received a single 4.2 mg kg^−1 dose of ET-26-HCl intravenously. Rats were sacrificed and tissues, including heart, spleen, lung, intestine, colon, kidney, brain, fat, stomach, liver, muscle, testis and ovary were collected at 0, 1, 3, 6 and 10 h post-dosing (six rats/time-point). Tissue samples were rinsed thrice in ice cold saline, and blotted dry with filter papers. Weighed amount of tissues were homogenized in normal saline (thrice the tissue weight, w/v) and homogenates were stored at −80°C until analysis.
# [8] = Excretion (urine, faeces, bile) in Sprague Dawley rats; assay type: in vivo
# Protocol: as §3
# SD rats (4 male and 4 female) received 4.2 mg kg^−1 of ET-26-HCl intravenously and were housed in metabolic cages. Urine and faeces from the treated rats were collected between 0–6, 6–12, 12–24, 24–30, 30–36 and 36–48 h post-dosing. Urine volume and faeces weight were measured and recorded.
# Bile fistulas of SD rats (four male and four female) were cannulated with polyethylene tube (Instech Laboratories, Inc., USA) and bile was collected at the following time-points: 0–3, 3–6, 6–9, 9–12 and 12–24 h post-dosing. The volume of the collected bile was measured and stored at −80°C until analysis.
# [9] = design: method as in earlier work; details: dog; ref results of the drug effect in the early stage of the cooperation laboratory; cited from earlier work
# [10] = measured concentration 654 ng ml^−1
# [11] = measured concentration 2.62 × 10^3 ng ml^−1, read-out: protein binding (converted)
# [12] = measured concentration 5.23 × 10^3 ng ml^−1, read-out: protein binding (converted)
# [13] = overall over the three concentrations, read-out: plasma protein binding rate (converted)
# [14] = i.v. ET-26-HCl 4.2 mg kg^−1, collected to 48 h
smiles,measurement,setting,value
"COCCOC(=O)c1cncn1[C@H](C)c1ccccc1.Cl [ET-26-HCl, (R)-2-methoxyethyl1-(1-phenylethyl)-1H-imidazole-5-carboxylate hydrochloride]","CLint, in vitro",[1]; human liver microsomes,50.0 ml min g^−1 protein
same,metabolic stability (in words),[1]; human liver microsomes,relatively stable
same,"CLint, in vitro","[1]; human liver microsomes, Cprotein 0.33 mg ml^−1",50.0 ± 1.9 ml min^−1 g^−1 protein
same,extrapolated CLhep in vivo,"[1]; human, from liver microsomes",1077 ± 11.8 mL/min
same,"extrapolated CLint, in vivo","[1]; human, from liver microsomes",3823 ± 146.4 mL/min
same,half-life,"[1]; pH 7.4, human liver microsomes, Cprotein 0.33 mg ml^−1",42 ± 1.7 min
same,"CLint, in vitro",[2]; rat liver microsomes,984 ml min g^−1 protein
same,metabolic stability (in words),[2]; rat liver microsomes,not metabolically stable
same,"CLint, in vitro","[2]; rat liver microsomes, Cprotein 0.33 mg ml^−1",984 ± 68.6 ml min^−1 g^−1 protein
same,extrapolated hepatic clearance normalized to body weight,"[2]; rat, assumed body weight 0.25 kg (printed order)",1.78 L·h/kg
same,extrapolated CLhep in vivo,"[2]; rat, from liver microsomes",19.1 mL/min and 19.1 ± 0.1 mL/min
same,"extrapolated CLint, in vivo","[2]; rat, from liver microsomes",443 ± 30.9 mL/min
same,"CLint, in vitro",[3]; monkey liver microsomes,2216 ml min g^−1 protein
same,metabolic stability (in words),[3]; monkey liver microsomes,not metabolically stable
same,time to complete disappearance of ET-26-HCl,[3]; monkey liver microsomes,≤ 15 min
same,"CLint, in vitro","[3]; monkey liver microsomes, Cprotein 0.33 mg ml^−1",2216 ± 43.0 ml min^−1 g^−1 protein
same,extrapolated CLhep in vivo,"[3]; monkey, from liver microsomes",168 ± 0.05 mL/min
same,"fraction unbound at 9 h, 654 ng ml^−1",[4]; [10],0.0453
same,fraction unbound at 9 h,[4]; [11],0.0539
same,fraction unbound at 9 h,[4]; [12],0.0702
same,fraction unbound at 9 h,[4]; [13],0.0565 ± 0.000689
same,fraction unbound at 9 h,"[5]; beagle dog plasma, overall over the three concentrations, read-out: plasma protein binding rate (converted)",0.34
same,"fraction unbound at 9 h, 654 ng ml^−1","[5]; dog plasma, measured concentration 654 ng ml^−1",0.345
same,fraction unbound at 9 h,"[5]; dog plasma, measured concentration 2.62 × 10^3 ng ml^−1, read-out: protein binding (converted)",0.369
same,fraction unbound at 9 h,"[5]; dog plasma, measured concentration 5.23 × 10^3 ng ml^−1, read-out: protein binding (converted)",0.306
same,"fraction unbound at 9 h, 654 ng ml^−1",[6]; [10],0.387
same,fraction unbound at 9 h,[6]; [11],0.375 ± 0.0269
same,fraction unbound at 9 h,[6]; [12],0.357
same,fraction unbound at 9 h,[6]; [13],0.373
same,time for complete excretion from kidney,[7]; i.v. 4.2 mg kg^−1,≤ 24 h
same,time for elimination from the brain,[7]; i.v. 4.2 mg kg^−1,≤ 3 h
same,concentration in the brain,"[7]; i.v. 4.2 mg kg^−1, at the onset",2570 ng/mL
same,time for clearance from tissues,[7]; i.v. 4.2 mg kg^−1 ET-26-HCl,around 3 h
same,tissues with the highest concentration,[7]; i.v. 4.2 mg kg^−1 ET-26-HCl,Adipose tissue and liver
same,accumulative excretion through bile,"[8]; i.v. ET-26-HCl 4.2 mg kg^−1, bile collected to 24 h",0.619%
same,accumulative excretion through faeces,[8]; [14],0.076%
same,accumulative excretion through urine,[8]; [14],11.97%
same,ED50,[9],1.045 mg/kg
